Patent US20090137664A1, “SAURURUS CERNUUS COMPOUNDS THAT INHIBIT CELLULAR RESPONSES TO HYPOXIA” (priority 2003, published 2009)

Key:
Type in all cases: cell-based
HOP-92 = assay: NCI in vitro cell line screen (SRB), Non-Small Cell Lung Cancer HOP-92
Description: (§1) For exemplary purposes, an embodiment of the present invention was tested for activity with respect to certain cancer cell lines. The following Tables show results from in vitro 60-cell line antitumor testing from the US National Cancer Institute Developmental Therapeutics Program (NCI-DTP) on compound 2. The testing was in connection with the NCI's In Vitro Cell Line Screening Project (IVCLSP). Detailed information regarding the experiments and their interpretation is available from the NCI.

SF-295 = assay: NCI in vitro cell line screen (SRB), CNS Cancer SF-295
Description: as §1

OVCAR-5 = assay: NCI in vitro cell line screen (SRB), Ovarian Cancer OVCAR-5
Description: as §1

UO-31 = assay: NCI in vitro cell line screen (SRB), Renal Cancer UO-31
Description: as §1

[1] = Homo sapiens, read-out: LC50 (the source's name)

COc1ccc([C@@H](O)[C@@H](C)Oc2ccc([C@H]3O[C@H](c4ccc(O[C@H](C)[C@H](O)c5ccc6c(c5)OCO6)c(OC)c4)[C@H](C)[C@H]3C)cc2OC)cc1OC [Compound 2, manassantin B]
TGI (HOP-92): 2.45E−5 Molar
GI50 (HOP-92; Homo sapiens): 1.98 µM
LC50 (HOP-92; Homo sapiens): > 100 µM
Mean Optical Densities (HOP-92; Log10 Concentration −4.0 Molar): 0.490
Percent Growth (HOP-92; Log10 Concentration −4.0 Molar): −30%
Mean Optical Densities (HOP-92; Log10 Concentration −5.0 Molar): 0.744
Percent Growth (HOP-92; Log10 Concentration −5.0 Molar): 19%
Mean Optical Densities (HOP-92; Log10 Concentration −6.0 Molar): 0.846
Percent Growth (HOP-92; Log10 Concentration −6.0 Molar): 63%
Mean Optical Densities (HOP-92; Log10 Concentration −7.0 Molar): 0.947
Percent Growth (HOP-92; Log10 Concentration −7.0 Molar): 107%
Mean Optical Densities (HOP-92; Log10 Concentration −8.0 Molar): 0.971
Percent Growth (HOP-92; Log10 Concentration −8.0 Molar): 117%
TGI (SF-295): 7.46E−5 Molar
GI50 (SF-295; Homo sapiens): < 0.01 µM
CC50 (SF-295; [1]): > 100 µM
Mean Optical Densities (SF-295; Log10 Concentration −4.0 Molar): 0.523
Percent Growth (SF-295; Log10 Concentration −4.0 Molar): −2%
Mean Optical Densities (SF-295; Log10 Concentration −5.0 Molar): 0.621
Percent Growth (SF-295; Log10 Concentration −5.0 Molar): 11%
Mean Optical Densities (SF-295; Log10 Concentration −6.0 Molar): 0.851
Percent Growth (SF-295; Log10 Concentration −6.0 Molar): 39%
Mean Optical Densities (SF-295; Log10 Concentration −7.0 Molar): 0.811
Percent Growth (SF-295; Log10 Concentration −7.0 Molar): 34%
Mean Optical Densities (SF-295; Log10 Concentration −8.0 Molar): 0.751
Percent Growth (SF-295; Log10 Concentration −8.0 Molar): 27%
TGI (OVCAR-5): >1.00E−4 Molar
CC50 (OVCAR-5; [1]): > 100 µM
Mean Optical Densities (OVCAR-5; Log10 Concentration −4.0 Molar): 0.713
Percent Growth (OVCAR-5; Log10 Concentration −4.0 Molar): 11%
Mean Optical Densities (OVCAR-5; Log10 Concentration −5.0 Molar): 0.752
Percent Growth (OVCAR-5; Log10 Concentration −5.0 Molar): 26%
Mean Optical Densities (OVCAR-5; Log10 Concentration −6.0 Molar): 0.862
Percent Growth (OVCAR-5; Log10 Concentration −6.0 Molar): 68%
Mean Optical Densities (OVCAR-5; Log10 Concentration −7.0 Molar): 0.853
Percent Growth (OVCAR-5; Log10 Concentration −7.0 Molar): 65%
Mean Optical Densities (OVCAR-5; Log10 Concentration −8.0 Molar): 0.696
Percent Growth (OVCAR-5; Log10 Concentration −8.0 Molar): 4%
TGI (UO-31): >1.00E−4 Molar
GI50 (UO-31; Homo sapiens): 3.9 µM
CC50 (UO-31; [1]): > 100 µM
Mean Optical Densities (UO-31; Log10 Concentration −4.0 Molar): 0.786
Percent Growth (UO-31; Log10 Concentration −4.0 Molar): 33%
Mean Optical Densities (UO-31; Log10 Concentration −5.0 Molar): 0.841
Percent Growth (UO-31; Log10 Concentration −5.0 Molar): 39%
Mean Optical Densities (UO-31; Log10 Concentration −6.0 Molar): 1.102
Percent Growth (UO-31; Log10 Concentration −6.0 Molar): 66%
Mean Optical Densities (UO-31; Log10 Concentration −7.0 Molar): 1.189
Percent Growth (UO-31; Log10 Concentration −7.0 Molar): 75%
Mean Optical Densities (UO-31; Log10 Concentration −8.0 Molar): 1.250
Percent Growth (UO-31; Log10 Concentration −8.0 Molar): 81%
